Experimental data from patent US6706740B2, “Fungicidal heterocyclic aromatic amides and their compositions, methods of use and preparation” (Dow AgroSciences LLC, priority 1999, dated 2004).
Read-outs that look alike come from different tables or passages of the source.

Tests used:
[1] = test system: Magnaporthe grisea (Pyricularia oryzae—PYRIOR); assay: microbe, parasite or virus in culture; assay type: cell-based; settings: Pyricularia oryzae, read-out: PYRIOR in vitro Growth Inhibition
[2] = test system: Rhizoctonia solani (RHIZSO); assay: microbe, parasite or virus in culture; assay type: cell-based; settings: Rhizoctonia solani, read-out: RHIZSO in vitro Growth Inhibition
[3] = test system: Mycosphaerella graminicola (Septoria tritici—SEPTTR); assay: In vitro fungal growth inhibition, Mycosphaerella graminicola (SEPTTR); assay type: cell-based; settings: Zymoseptoria tritici, read-out: SEPTTR in vitro Growth Inhibition
[4] = test system: Stagonospora nodorum (Leptosphaeria nodorum—LEPTNO); assay: In vitro fungal growth inhibition, Stagonospora nodorum (LEPTNO); assay type: cell-based; settings: Leptosphaeria, read-out: LEPTNO in vitro Growth Inhibition
Ustilago maydis (USTIMA) = assay: microbe, parasite or virus in culture; assay type: cell-based; settings: Mycosarcoma maydis, read-out: USTIMA in vitro Growth Inhibition
[5] = test system: Phytophthora infestans (PHYTIN); assay: microbe, parasite or virus in culture; assay type: cell-based; settings: Phytophthora infestans, read-out: PHYTIN in vitro Growth Inhibition
[6] = test system: Phytophthora infestans—PHYTIN; assay: whole plant or invertebrate; assay type: in vivo; settings: Phytophthora, in Solanum lycopersicum, 24 h, read-out: PHYTIN in vivo 1 Day Protectant
[7] = test system: Puccinia recondita—PUCCRT; assay: Brown Rust of Wheat, in vivo whole plant, 24 Hour Protectant; settings: Puccinia, control of fungal infection vs untreated plants, read-out: PUCCRT in vivo 1 Day Protectant
Erysiphe graminis—ERYSGT = assay: Powdery Mildew of Wheat, in vivo whole plant, 24 Hour Protectant; settings: Erysiphe, control of fungal infection vs untreated plants, read-out: ERYSGT in vivo 1 Day Protectant
Septoria tritici—SEPTTR = assay: Leaf Blotch of Wheat, in vivo whole plant, 24 Hour Protectant; settings: Zymoseptoria tritici, 24 h, control of fungal infection vs untreated plants, read-out: SEPTTR in vivo 1 Day Protectant
[8] = test system: Leptosphaeria nodorum—LEPTNO; assay: Glume Blotch of Wheat, in vivo whole plant, 24 Hour Protectant; settings: control of fungal infection vs untreated plants; for pest or weed control at 100 ppm: Leptosphaeria, read-out: LEPTNO in vivo 1 Day Protectant
[9] = wheat plants sprayed at 100 ppm, inoculated after 24 hours
[10] = 100 ppm spray, wheat, 24 hour protectant
[11] = 100 ppm spray, 24 hour protectant, wheat

Row | SMILES | inhibition at 25 ppm [1] [%] | inhibition at 25 ppm [2] [%] | inhibition at 25 ppm ([3]; 25 ppm in the growth medium) [%] | inhibition at 25 ppm ([4]; 25 ppm in the growth medium) [%] | inhibition at 25 ppm (Ustilago maydis (USTIMA)) [%] | inhibition at 25 ppm [5] [%] | pest or weed control at 100 ppm [6] [%] | pest or weed control at 100 ppm [7, 9] [%] | pest or weed control at 100 ppm (Erysiphe graminis—ERYSGT; [9]) [%] | pest or weed control at 100 ppm (Septoria tritici—SEPTTR; [9]) [%] | pest or weed control at 100 ppm [8, 9] [%] | melting point [°C] | inhibition at 25 ppm ([3]; 25 ppm in growth medium) [%] | inhibition at 25 ppm ([4]; 25 ppm in growth medium) [%] | pest or weed control at 100 ppm [7, 11] [%] | pest or weed control at 100 ppm (Erysiphe graminis—ERYSGT; [11]) [%] | pest or weed control at 100 ppm (Septoria tritici—SEPTTR; [11]) [%] | pest or weed control at 100 ppm [8, 11] [%] | further results
1 | O=C(NCc1ccc(Cl)c(Cl)c1)c1cccnc1O [Compound 517] | < 80 | < 80 | < 80 | < 80 | < 80 | < 80 | < 25 | < 25 | < 25 | < 25 | 25 to 74 | 229 to 230 |  |  |  |  |  |  | 
2 | COc1ccnc(C(=O)Nc2ccc(Sc3cccc(C(F)(F)F)c3)cc2)c1O [Compound 445] | > 80 | < 80 |  |  | > 80 | < 80 | < 25 |  |  |  |  | 167 to 169 | > 80 | < 80 |  |  |  |  | pest or weed control at 100 ppm [7, 10]: 25 to 74%; pest or weed control at 100 ppm (Erysiphe graminis—ERYSGT; [10]): 25 to 74%; pest or weed control at 100 ppm (Septoria tritici—SEPTTR; [10]): 25 to 74%; LEPTNO in vivo 1 Day Protectant [8, 10]: + +
3 | CSc1ccnc(C(=O)Nc2ccc(Oc3cccc(C(F)(F)F)c3)cc2)c1O [Compound 479] | < 80 | < 80 | < 80 | < 80 | < 80 | < 80 | < 25 | < 25 | < 25 | 25 to 74 | 25 to 74 | 129 to 132 |  |  |  |  |  |  | 
4 | COc1ccccc1CNC(=O)c1ncccc1O [Compound 224] | > 80 | < 80 |  |  | < 80 | < 80 | < 25 |  |  |  |  | 75 to 76 | < 80 | < 80 | < 25 | < 25 | < 25 | < 25 | 
5 | COc1ccnc(C(=O)NC2CCc3ccccc3C2=O)c1O (stereo not drawn) [Compound 285] | < 80 | > 80 |  |  | < 80 | < 80 | < 25 |  |  |  |  | 174 to 179 | < 80 | < 80 | < 25 | < 25 | 25 to 74 | 25 to 74 | 
6 | COc1ccnc(C(=O)Nc2ccc(Oc3cc(C(F)(F)F)nc(C(F)(F)F)c3)cc2)c1O [Compound 466] | < 80 | < 80 | < 80 | > 80 | < 80 | < 80 | < 25 | < 25 | < 25 | 25 to 74 | 25 to 74 | 198 to 200 |  |  |  |  |  |  | 
7 | COc1ccnc(C(=O)Nc2ccc(OC3CC(C)(C)OC(C)(C)C3)cc2)c1O [Compound 459] | < 80 | < 80 |  |  | < 80 | < 80 | < 25 |  |  |  |  | 161 to 163 | < 80 | < 80 |  |  |  |  | pest or weed control at 100 ppm [7, 10]: 25 to 74%; pest or weed control at 100 ppm (Erysiphe graminis—ERYSGT; [10]): 25 to 74%; pest or weed control at 100 ppm (Septoria tritici—SEPTTR; [10]): 25 to 74%; LEPTNO in vivo 1 Day Protectant [8, 10]: + +
8 | CSc1nnc(C(=O)Nc2ccc(Oc3cccc(C(F)(F)F)c3)cc2)c(O)n1 [Compound 548] | < 80 | < 80 | < 80 | < 80 | < 80 | < 80 | 25 to 74 | < 25 | < 25 | 25 to 74 | 25 to 74 | 261 to 265 |  |  |  |  |  |  | 
9 | O=C(NCc1cccc2ccccc12)c1ncccc1O [Compound 228] | < 80 | < 80 |  |  | < 80 | < 80 | 25 to 74 |  |  |  |  | 106 to 109 | < 80 | < 80 | < 25 | < 25 | < 25 | < 25 | 
10 | COc1ccnc(C(=O)N[C@@H]2CC(C)(C)C[C@](C)(C(=O)N(C)CCc3ccccc3)C2)c1O [Compound 262] | < 80 | < 80 |  |  | < 80 | < 80 | < 25 |  |  |  |  | 59 to 60 | < 80 | < 80 | < 25 | < 25 | 25 to 74 | 25 to 74 | 
11 | O=C(NC1CCCCC1)c1cccnc1O [Compound 515] | < 80 | < 80 | < 80 | < 80 | < 80 | < 80 | < 25 | < 25 | < 25 | 25 to 74 | < 25 | 190 to 192 |  |  |  |  |  |  | 
12 | COc1nc(O)c(C(=O)N[C@H]2COC(=O)[C@H](Cc3ccccc3)[C@@H](OC(=O)C(C)C)[C@H](C)OC2=O)nc1Cl [Compound 537] | < 80 | < 80 | < 80 | < 80 | < 80 | < 80 | < 25 | 25 to 74 | < 25 | 25 to 74 |  | 84 to 86 |  |  |  |  |  |  | LEPTNO in vivo 1 Day Protectant [8, 9]: + +
13 | CC1(C)CC(NC(=O)c2cn(-c3ccccc3)nc2O)CC(C)(C)C1 [Compound 559] | < 80 | < 80 | < 80 | < 80 | < 80 | < 80 | < 25 | 25 to 74 | < 25 | < 25 | 25 to 74 | 215 to 217 |  |  |  |  |  |  | 
14 | O=C(NC(Cc1ccccc1)c1ccccc1)c1cccnc1O (stereo not drawn) [Compound 519] | < 80 | < 80 | < 80 | < 80 | < 80 | < 80 | < 25 | < 25 | < 25 | < 25 | 25 to 74 | 190 to 192 |  |  |  |  |  |  | 
15 | COc1ccnc(C(=O)N[C@@H]2CCCC[C@H]2SC)c1O [Compound 273] | < 80 | < 80 |  |  | < 80 | < 80 | < 25 |  |  |  |  | 113 to 115 | < 80 | < 80 | < 25 | < 25 | 25 to 74 | 25 to 74 | 
